Measured values taken from US10889847B2, “Kit and discs for use in disc diffusion antibiotic sensitivity testing” (YISSUM RESEARCH DEVELOPMENT COMPANY OF THE HEBREW …, priority 2015, dated 2021).

Tests used:
[1] = test system: E. cloacae clinical strain B340; assay: Tolerance Diffusion test (TDtest), strain B340; type: cell-based; settings: ampicillin disk replaced with glucose disk after 18 hours, read at 36 hours
Experimental: (§1) 2 Disc Test (TDtest) Procedure
(§2) The TDtest consists of two steps:
(§3) Step I—Incubation with Antibiotics:
(§4) Circa 10^7 bacteria at stationary phase (100 microliter) were plated on LBL nutrient agar plate. An antibiotic disc was placed on the agar. The plate with the antibiotic disc was incubated for at least 4 hours and up to 30 hours, preferably about 18 hours at 37° C.
(§5) The amount of antibiotics in each disk was adjusted to reach a concentration below the MIC in the inhibition zone after an overnight incubation at 37° C. Many commercial disks contain antibiotics in amounts that are too high for the concentration to fall below the MIC after this time. When this was the case, custom disks were prepared as specified herein below.
(§6) Step II—Incubation with Nutrient:
(§7) This step was carried out in one of the following protocols:
(§8) a. The antibiotic disk was replaced with a nutrient (i.e. 2 mg glucose) disk at the end of the antibiotic incubation time. The plate was incubated again for an additional overnight (at least 5 hours and up to 24 hours, preferably about 18 hours) at 37° C.
(§9) b. Nutrient solution (i.e., 2 mg glucose, or 5 microliter of 40% glucose solution) was added directly on the antibiotic disk, instead of replacing it.
(§10) c. Two phases disk was prepared, by impregnating 6 mg glucose on the upper side of the disk.
After the completion of the above steps, the growth of the bacteria was visually inspected. […]

[2] = test system: E. coli tolerant strain tbl3a; assay: Tolerance Diffusion test (TDtest), strain tbl3a; type: cell-based
Experimental: as §1, §2, §3, §4, §5, §6, §7, §8
b. […]
Tolerant bacteria are identified by the use of two different TDtest methods, the two-disks TDtest and the single disk TDtest. […] The growth of the bacterium was monitored at several time points (0, 8, 17, 30 and 36 hours from the beginning of the test).

tbl5a = assay: Tolerance Diffusion test (TDtest), strain tbl5a, three growth media; type: cell-based, E. coli; settings: after second step, LB agar, Mueller-Hinton agar, Mueller-Hinton+5% Blood agar
Experimental: FIG. 13A-13C show TDtest performed on three different growth media. The results are shown after the second step of TDtest examining the effect of ampicillin on tbl5a.
FIG. 13A is a LB agar plate.
FIG. 13B is a Mueller-Hinton agar plate.
FIG. 13C is a Mueller-Hinton+5% Blood agar plate.
as §1, §2, §3, §4, §5, §6, §7, §8
b. […]

tbl3a = assay: Time-kill experiment in liquid culture, tbl3a; type: cell-based, E. coli; settings: for fraction of survivals: antibiotic 100 microgram/ml, after 2.6 hours
Experimental: (§11) Overnight bacterial cultures were diluted 1:100 in fresh medium containing antibiotic and incubated at 37° C. for designated time. Bacterial survival was determined by the most probable number-counting method (MPN), as described in Hurley, M. A. & Roscoe, M. E. Automated Statistical-Analysis of Microbial Enumeration by Dilution Series. J Appl. Bacteriol. 55:159-164 (1983).
These findings were verified by measuring the survival of tbl3a in liquid culture after exposure to the two antibiotics. An overnight culture was diluted and exposed either to ampicillin (100 microgram/ml) or kanamycin (100 microgram/ml). […] The large fraction of survivals in Ampicillin (12% after 2.6 hours) was predicted by the late colonies appearance, and is absent in Kanamycin (1.4E-8% after 2.6 hours).

many species = settings: in many species; cited from earlier work
[3] = test system: E. coli clinical strain W574; assay: Tolerance Diffusion test (TDtest), strain W574; type: cell-based; settings: ertapenem disk (0.25 microgram), glucose disk in step II
Experimental: as §1, §2, §3, §4, §5, §6, §7, §8, §9, §10
(§12) After the completion of the above steps, the growth of the bacteria was visually inspected.

[4] = test system: E. coli clinical strain U453; assay: Tolerance Diffusion test (TDtest), strain U453; type: cell-based; settings: ertapenem disk (0.25 microgram), glucose disk in step II
Experimental: as §1, §2, §3, §4, §5, §6, §7, §8, §9, §10, §12

E. coli strain U453 = assay: MIC, strain U453; type: cell-based; settings: Escherichia coli
E. coli strain W574 = assay: MIC, strain W574; type: cell-based; settings: Escherichia coli
[5] = test system: E. coli strains W574 and U453; assay: Survival fraction in liquid culture, W574 versus U453; type: cell-based; settings: ertapenem 10 microgram/ml
Experimental: as §11

[6] = at 12 hours after 1 gram dosing; cited from earlier work

Row | Structure (SMILES) | tolerance by TDtest (colonies in inhibition zone) [1] | bacterial colonies in TDtest plate ([2]; after 36 hours, two-disks TDtest (glucose disk after 18 hours) or single disk TDtest) | tolerance by TDtest ([2]; ampicillin 10 microgram or kanamycin 15 microgram disk) | tolerance level by TDtest (tbl5a) | survival fraction under ampicillin relative to kanamycin (tbl3a; 100 microgram/ml each) | fraction of survivals (tbl3a) [%] | MIC (many species) | tolerance level by TDtest (colonies inside the inhibition zone after step II) [3] | tolerance level by TDtest (colonies inside the inhibition zone after step II) [4] | MIC (E. coli strain U453) [µg/mL] | MIC (E. coli strain W574) [µg/mL] | fraction of survival of a liquid culture, W574 versus U453 [5] | mean serum concentration [6] [microgram/ml]
1 | CC1(C)S[C@@H]2[C@H](NC(=O)[C@H](N)c3ccccc3)C(=O)N2[C@H]1C(=O)O [ampicillin] | tolerant | bacterial colonies are well seen | very tolerant | medium tolerance (“medium tolerance” is 10 to a few hundred colonies in the inhibition zone) | three orders of magnitude lower | 12 | around 4 microgram/ml |  |  |  |  |  | 
2 | C[C@@H](O)[C@H]1C(=O)N2C(C(=O)O)=C(S[C@@H]3CN[C@H](C(=O)Nc4cccc(C(=O)O)c4)C3)[C@H](C)[C@H]12 [ertapenem] |  |  |  |  |  |  |  | high tolerance | low tolerance | < 0.05 | < 0.05 | higher tolerance | ~10
3 | NC[C@H]1O[C@H](O[C@H]2[C@H](O)[C@@H](O[C@H]3O[C@H](CO)[C@@H](O)[C@H](N)[C@H]3O)[C@H](N)C[C@@H]2N)[C@H](O)[C@@H](O)[C@@H]1O [kanamycin] |  |  |  |  |  | 1.4E-8 |  |  |  |  |  |  | 
